Assay results as given in ChEMBL document CHEMBL1150051, “Antiviral (RNA) activity of selected Amaryllidaceae isoquinoline constituents and synthesis of related substances” (J Nat Prod, 1992).
Converted amounts (≈) assume the structure as drawn. The source made the active and inactive calls. The calls are words filed in the database; no cut-off is given here.

Legend:
Mus musculus [1] = assay: Toxicity in C57BL/6 mouse assessed as change in body weight at 3 mg/kg/day, ip twice daily for 9 days administered 1 day before infection measured after 28 days post infection; format: organism-based; set-up: route intraperitoneal; conditions: in vivo, 672 h
Mus musculus [2] = assay: Toxicity in C57BL/6 mouse assessed as change in body weight at 5 mg/kg/day, ip twice daily for 9 days administered 1 day before infection measured after 28 days post infection; format: organism-based; set-up: route intraperitoneal; conditions: in vivo, 672 h
[3] = system: Japanese encephalitis virus; assay: Antiviral activity against Japanese encephalitis virus Beijing infected in high viral dose challenge C57BL/6 mouse model assessed inhibition of virus-induced mortality at 4 mg/kg/day, ip twice daily for 9 days administered 1 day before infection measured after 28 days post infection; format: functional, organism-based
[4] = system: Japanese encephalitis virus; assay: Antiviral activity against Japanese encephalitis virus Beijing infected in high viral dose challenge C57BL/6 mouse model assessed as average day of death at 4 mg/kg/day, ip twice daily for 9 days administered 1 day before infection measured after 28 days post infection; format: functional; conditions: route intraperitoneal
dengue virus type 4 = assay: Antiviral activity against Dengue virus type 4 infected in african green monkey Vero cells after 6 days by plaque reduction assay; format: functional, organism-based; conditions: Dengue virus, Vero, 144 h; read-out: IC50
[5] = system: Japanese encephalitis virus; assay: Antiviral activity against Japanese encephalitis virus Beijing infected in high viral dose challenge C57BL/6 mouse model assessed as average day of death at 3 mg/kg/day, ip twice daily for 9 days administered 1 day before infection measured after 28 days post infection; format: functional; conditions: route intraperitoneal
[6] = Therapeutic index, ratio of TC50 for african green monkey Vero cells to IC50 for Japanese encephalitis virus Nakayama; format: cell-based; conditions: read-out: TI
[7] = system: Sandfly fever Sicilian virus; assay: Antiviral activity against Sandfly fever sicilian virus infected in african green monkey Vero cells assessed as inhibition of virus-induced cytopathic effect by MTT assay; format: functional, organism-based; conditions: vero
[8] = system: Japanese encephalitis virus; assay: Antiviral activity against Japanese encephalitis virus Beijing infected in high viral dose challenge C57BL/6 mouse model assessed as average day of death at 5 mg/kg/day, ip twice daily for 9 days administered 1 day before infection measured after 28 days post infection; format: functional; conditions: route intraperitoneal
Mus musculus [9] = assay: Toxicity in C57BL/6 mouse assessed as mortality at 2 mg/kg/day, sc once daily for 7 days; format: organism-based; set-up: route subcutaneous; conditions: in vivo, 168 h
[10] = system: Japanese encephalitis virus; assay: Antiviral activity against Japanese encephalitis virus Beijing infected in high viral dose challenge C57BL/6 mouse model assessed as average day of death at 2 mg/kg/day, ip twice daily for 9 days administered 1 day before infection measured after 28 days post infection; format: functional; conditions: route intraperitoneal
Mus musculus [11] = assay: Toxicity in C57BL/6 mouse assessed as mortality at 4 mg/kg/day, sc once daily for 7 days; format: organism-based; set-up: route subcutaneous; conditions: in vivo, 168 h
[12] = system: Japanese encephalitis virus; assay: Antiviral activity against Japanese encephalitis virus Beijing infected in low viral dose challenge C57BL/6 mouse model assessed as average day of death at 6 mg/kg/day, sc once daily for 7 days administered 1 day before infection measured after 28 days post infection; format: functional; conditions: route subcutaneous
[13] = system: Japanese encephalitis virus; assay: Antiviral activity against Japanese encephalitis virus Beijing infected in high viral dose challenge C57BL/6 mouse model assessed as survival rate at 6 mg/kg/day, ip twice daily for 9 days administered 1 day before infection measured after 28 days post infection relative to control; format: functional; conditions: route intraperitoneal
[14] = system: Japanese encephalitis virus; assay: Antiviral activity against Japanese encephalitis virus Nakayama infected in african green monkey Vero cells assessed as inhibition of virus-induced cytopathic effect by MTT assay; format: functional, organism-based; conditions: Japanese encephalitis virus, Nakayama, Vero; read-out: IC50
Rift Valley fever virus = assay: Antiviral activity against Rift Valley fever virus infected in african green monkey Vero cells after 6 days by plaque reduction assay; format: functional, organism-based; conditions: Rift Valley fever virus, Vero, 144 h; read-out: IC50
[15] = system: Japanese encephalitis virus; assay: Antiviral activity against Japanese encephalitis virus Beijing infected in high viral dose challenge C57BL/6 mouse model assessed as average day of death at 8 mg/kg/day, ip twice daily for 9 days administered 1 day before infection measured after 28 days post infection; format: functional; conditions: route intraperitoneal
Mus musculus [16] = assay: Toxicity in C57BL/6 mouse assessed as average day of death at 6 mg/kg/day, sc once daily for 7 days; format: organism-based; set-up: route subcutaneous; conditions: in vivo, 168 h
Mus musculus [17] = assay: Toxicity in C57BL/6 mouse assessed as change in body weight at 8 mg/kg/day, ip twice daily for 9 days administered 1 day before infection measured after 28 days post infection; format: organism-based; set-up: route intraperitoneal; conditions: in vivo, 672 h
Mus musculus [18] = assay: Toxicity in C57BL/6 mouse assessed as mortality at 6 mg/kg/day, sc once daily for 7 days; format: organism-based; set-up: route subcutaneous; conditions: in vivo, 168 h
Yellow fever virus = assay: Antiviral activity against Yellow fever virus Ashibi infected in african green monkey Vero cells assessed as inhibition of virus-induced cytopathic effect by MTT assay; format: functional, organism-based; conditions: Yellow fever virus, Ashibi, Vero; read-out: IC50
[19] = Therapeutic index, ratio of TC50 for african green monkey Vero cells to IC50 for Dengue type 4 virus; format: cell-based; conditions: read-out: TI
Mus musculus [20] = assay: Toxicity in C57BL/6 mouse assessed as mortality at 4 mg/kg/day, ip twice daily for 9 days; format: organism-based; set-up: route intraperitoneal; conditions: in vivo, 216 h
[21] = system: Japanese encephalitis virus; assay: Antiviral activity against Japanese encephalitis virus Beijing infected in low viral dose challenge C57BL/6 mouse model assessed as average day of death at 4 mg/kg/day, sc once daily for 7 days administered 1 day before infection measured after 28 days post infection; format: functional; conditions: route subcutaneous
Mus musculus [22] = assay: Toxicity in C57BL/6 mouse assessed as change in body weight at 4 mg/kg/day, ip twice daily for 9 days administered 1 day before infection measured after 28 days post infection; format: organism-based; set-up: route intraperitoneal; conditions: in vivo, 672 h
Mus musculus [23] = assay: Toxicity in C57BL/6 mouse assessed as change in body weight at 2 mg/kg/day, ip twice daily for 9 days administered 1 day before infection measured after 28 days post infection; format: organism-based; set-up: route intraperitoneal; conditions: in vivo, 672 h
[24] = system: Japanese encephalitis virus; assay: Antiviral activity against Japanese encephalitis virus Beijing infected in high viral dose challenge C57BL/6 mouse model assessed as average day of death at 6 mg/kg/day, ip twice daily for 9 days administered 1 day before infection measured after 28 days post infection; format: functional; conditions: route intraperitoneal
[25] = system: Japanese encephalitis virus; assay: Antiviral activity against Japanese encephalitis virus Beijing infected in low viral dose challenge C57BL/6 mouse model assessed as survival rate at 4 mg/kg/day, sc once daily for 7 days administered 1 day before infection measured after 28 days post infection relative to control; format: functional; conditions: route subcutaneous
Mus musculus [26] = assay: Toxicity in C57BL/6 mouse assessed as mortality at 3 mg/kg/day, ip twice daily for 9 days; format: organism-based; set-up: route intraperitoneal; conditions: in vivo, 216 h
Mus musculus [27] = assay: Toxicity in C57BL/6 mouse assessed as change in body weight at 6 mg/kg/day, ip twice daily for 9 days administered 1 day before infection measured after 28 days post infection; format: organism-based; set-up: route intraperitoneal; conditions: in vivo, 672 h
Mus musculus [28] = assay: Toxicity in C57BL/6 mouse assessed as mortality at 2 mg/kg/day, ip twice daily for 9 days; format: organism-based; set-up: route intraperitoneal; conditions: in vivo, 216 h
[29] = system: Japanese encephalitis virus; assay: Antiviral activity against Japanese encephalitis virus Beijing infected in low viral dose challenge C57BL/6 mouse model assessed as inhibition of virus-induced mortality at 4 mg/kg/day, sc once daily for 7 days administered 1 day before infection measured after 28 days post infection; format: functional, organism-based
[30] = Therapeutic index, ratio of TC50 for african green monkey Vero cells to IC50 for Yellow fever virus Ashibi; format: cell-based; conditions: read-out: TI
Punta Toro virus = assay: Antiviral activity against Punta Toro virus Adames infected in african green monkey Vero cells assessed as inhibition of virus-induced cytopathic effect by MTT assay; format: functional, organism-based
[31] = system: Japanese encephalitis virus; assay: Antiviral activity against Japanese encephalitis virus Beijing infected in low viral dose challenge C57BL/6 mouse model assessed as average day of death at 2 mg/kg/day, sc once daily for 7 days administered 1 day before infection measured after 28 days post infection; format: functional; conditions: route subcutaneous
[32] = Therapeutic index, ratio of TC50 for african green monkey Vero cells to IC50 for Rift valley fever virus; format: cell-based; conditions: read-out: TI
[33] = system: Japanese encephalitis virus; assay: Antiviral activity against Japanese encephalitis virus Beijing infected in low viral dose challenge C57BL/6 mouse model assessed as survival rate at 6 mg/kg/day, sc once daily for 7 days administered 1 day before infection measured after 28 days post infection relative to control; format: functional; conditions: route subcutaneous

Compound: O=C1N[C@H]2[C@H](O)[C@H](O)[C@@H](O)[C@H](O)[C@@H]2c2cc3c(c(O)c21)OCO3 [PANCRATISTATIN]
- Activity (Mus musculus [1]): 2.1
- Activity (Mus musculus [2]): 1.4
- Activity [3]: inactive
- Activity [4]: 12.3 days
- IC50 (dengue virus type 4): 0.063 µg/mL (≈ 0.194 µM)
- Activity [5]: 12.6 days
- selectivity ratio [6]: 4.2
- IC50 [7]: Not Active
- Activity [8]: 10.4 days
- Activity (Mus musculus [9]): Non-toxic
- Activity [10]: 12.6 days
- Activity (Mus musculus [11]): Not Active
- Activity [12]: 15 days
- Activity [13]: 50%
- IC50 [14]: 0.022 µg/mL (≈ 0.0676 µM)
- IC50 (Rift Valley fever virus): 0.16 µg/mL (≈ 0.492 µM)
- Activity [15]: 12.9 days
- AD50 (Mus musculus [16]): 2.7 days
- Activity (Mus musculus [17]): 1.5
- Activity (Mus musculus [18]): Non-toxic
- IC50 (Yellow fever virus): 0.016 µg/mL (≈ 0.0492 µM)
- selectivity ratio [19]: 8
- Activity (Mus musculus [20]): Non-toxic
- Activity [21]: 15.4 days
- Activity (Mus musculus [22]): 1.8
- Activity (Mus musculus [23]): 2.8
- Activity [24]: 11.8 days
- Activity [25]: 30%
- Activity (Mus musculus [26]): Non-toxic
- Activity (Mus musculus [27]): 1.3
- Activity (Mus musculus [28]): Non-toxic
- Activity [29]: Active
- selectivity ratio [30]: 4.9
- inhibition (INH) (Punta Toro virus): 25%
- Activity [31]: 16.3 days
- selectivity ratio [32]: 3.1
- Activity [33]: 90%
